Literature values, collected in publication PMC8050614 (Journal of bone and mineral research : the official journal …, 2019).

How the values were obtained:
young wild-type mice = conditions: 8 weeks of treatment
wild-type mice = conditions: injection at 50 nmol/kg

NCCCC(O)(P(=O)(O)O)P(=O)(O)O [alendronate]
osteoclast size and/or number (young wild-type mice): increase | serum CTX1 (young wild-type mice): decrease

hPTH(1–34)NH2
hypercalcemic response (wild-type mice): frank hypercalcemic response
